This passage reports C50 results from article PMC12384515 (2023).

Test in all cases: fluorescent intercalator displacement
What all share (conditions): ethidium bromide (5 μM) displaced; DNA 10 μM/bp; per base

The subject of assay [1] is A5T5 (DNA, duplex) GGGAAAAATTTTTCCC
The subject of assay [2] is (AT)5 (DNA, duplex) GGGATATATATATCCC
The test system of assay [3] is G5C5 (DNA, duplex) AAAGGGGGCCCCCTTT

For the compound `CC1=CC(=[N+](C)C)C=CC1=C(c1ccc(N(C)C)cc1C)c1ccc(N(C)C)cc1C`, the C50 came to 2.40 ± 0.02 µM in assay [1], 2.30 ± 0.03 µM in assay [2] and 7.21 ± 0.63 µM in assay [3].
As to `CN(C)c1ccc([C+](c2ccc(N(C)C)cc2)c2ccc(N(C)C)c(-c3ccccc3)c2)cc1`, the C50 in assay [2] was determined as 2.75 ± 0.21 µM.
For the compound `CN(C)c1ccc([C+](c2ccc(N(C)C)cc2)c2ccc3cc(N(C)C)ccc3c2)cc1`, the C50 in assay [1] is 0.52 ± 0.01 µM; in assay [2], 0.32 ± 0.02 µM; in assay [3] it was 0.88 ± 0.01 µM.
`CN(C)c1ccc([C+](c2ccc(N(C)C)c(-c3ccccc3)c2)c2ccc(N(C)C)c(-c3ccccc3)c2)cc1-c1ccccc1`: the values for the C50 in assay [1] and in assay [3] were 3.13 ± 0.01 µM and 3.36 ± 0.07 µM, respectively.
